Data: patent US20060166937A1, “Bisphosphonates for the treatment of atherosclerosis and device comprising them” (priority 2002, published 2006)

Experiments:
[1] = system: patient with end stage renal failure undergoing dialysis; test: Arterial and valve calcification in a renal dialysis patient; assay type: in vivo, human; settings: 90 mg 2-hour i.v. infusion once a month for three months, one year following initial treatment
Description: The Effect of a Bisphosphonate on Arterial and Valve Calcification in a Renal Dialysis Patient A patient with end stage renal failure undergoing dialysis was diagnosed with severe osteoporosis. The patient was treated with 90 mg of pamidronate disodium administered via a 2-hour intravenous infusion once a month for a total of three months. […] This reduction in calcification was independently corraborated by three physicians who viewed the radiographic images in a blinded fashion.

LDLr−/− mice = test: Mouse model of progression of advanced atherosclerosis with vulnerable plaques (arterial calcification, valve calcification, plaque stabilization); assay type: in vivo
Description: A mouse model of progression of advanced atherosclerosis with development of vulnerable plaques was employed. Male, 4-6 week old LDLr−/− mice were divided into treatment groups of 18-20 animals each. […] The remaining LDLr−/− animals were dosed subcutaneously once per day with either vehicle or zoledronic acid solution (10 mg/kg/day) five out of seven days a week from week from week 15 through week 18 of diet administration. From weeks 19 through 22, no treatment was administered, however mice remained on the atherosclerosis-inducing high cholesterol/cholic acid diet. Mice were sacrificed at the end of week 22 and the heart and aorta were removed. The upper portion of the heart attached to the most proximal portion of the aorta containing the aortic sinus were embedded in OCT and frozen. 10 micron-thick sections were cut through the aortic sinus using a cryostat. Twenty-eight sections per animal were stained with von Kassa and/or hematoxylin. Cross-sectional areas were analyzed by planimetry to allow determination of atherosclerotic lesion area and extent of calcification within the heart valves. The remaining aorta, from the ascending aorta to the iliac bifurcation, as well as the major branches of the aorta were fixed, parafin embedded and cross sectioned for histologic analysis. Atherosclerosis extent and lesion composition was determined for the aorta and innominate (also called brachiocephalic) arteries using approriate staining methodology including hemotoxylin and eosin staining, Verhoff von Giessen staining for elastin, Von Kassa staining for calcium, and immunohistochemical stains for inflammatory cells.

[2] = system: rat carotid arteries, balloon injured; test: 28 day rat carotid artery balloon injury model (late neointimal lesion formation); assay type: in vivo; settings: for percent inhibition of neointimal lesion formation: 28 days post-balloon injury
Description: Inhibition of Late Neointimal Lesion Formation in the 28 Day Rat Carotid Artery Balloon Injury Model
Zoledronic acid is tested in the following rat model.
Rats are dosed orally with […]. Daily dosing starts 3 days prior to surgery and continues for 31 days. Rat carotid arteries are balloon injured using a method described by Clowes et al. Lab. Invest. 1983; 49; 208-215. Following sacrifice at 28 days post-balloon injury, carotid arteries are removed and processed for histologic and morphometric evaluation.

[3] = system: New Zealand White rabbit iliac arteries; test: Rabbit iliac stent model, restenosis at 28 days; assay type: in vivo
Description: A combined angioplasty and stenting procedure is performed in New Zealand White rabbit iliac arteries. Iliac artery balloon injury is performed by inflating a 3.0×9.0 mm angioplasty balloon in the mid-portion of the artery followed by “pull-back” of the catheter for 1 balloon length. Balloon injury is repeated 2 times, and a 3.0×12 mm stent is deployed at 6 atm for 30 seconds in the iliac artery. Balloon injury and stent placement is then performed on the contralateral iliac artery in the same manner. A post-stent deployment angiogram is performed. All animals receive oral aspirin 40 mg/day daily as anti-platelet therapy and are fed standard low-cholesterol rabbit chow. Twenty-eight days after stenting, animals are anesthetized and euthanized and the arterial tree is perfused at 100 mmHg with lactated Ringer's for several minutes, then perfused with 10% formalin at 100 mmHg for 15 minutes. The vascular section between the distal aorta and the proximal femoral arteries is excised and cleaned of periadventitial tissue. The stented section of artery is embedded in plastic and sections are taken from the proximal, middle, and distal portions of each stent. All sections are stained with hematoxylin-eosin and Movat pentachrome stains. Computerized planimetry is performed to determine the area of the internal elastic lamina (IEL), external elastic lamina (EEL) and lumen. The neointima and neointimal thickness is measured both at and between the stent struts. The vessel area is measured as the area within the EEL. Data are expressed as mean±SEM. Statistical analysis of the histologic data is accomplished using analysis of variance (ANOVA) due to the fact that two stented arteries are measured per animal with a mean generated per animal. A P<0.05 is considered statistically significant.
Zoledronic acid is administered orally by gavage at 30 mg/kg once daily from 3 days prior to stenting until day 27 post-stenting.

[4] = Stability of zoledronic acid in human plasma; assay type: in vitro ADME; settings: 37° C. for 72 hours
[5] = system: PDGF receptor immunocomplexes of BALB/c 3T3 cells; settings: free drug, day after day
Description: PDGF-stimulated receptor tyrosine kinase assay is performed on the last piece of each sample to determine the zoledronic acid activity. The inhibition of PDGF-stimulated receptor tyrosine kinase activity in vitro is measured in PDGF receptor immunocomplexes of BALB/c 3T3 cells, analogously to the method described by E. Andrejauskas-Buchdunger and U. Regenass in Cancer Research 52, 5353-5358 (1992).

[6] = at 22 weeks, vs baseline lesions at 15 weeks and vehicle at 22 weeks

With NCCC(O)(P(=O)(O)O)P(=O)(O)O [pamidronate disodium, 3-amino-1-hydroxypropane-1,1-diphosphonic acid] the “arterial and valve calcification (radiographic images)” value [1] was “noticeable reduction”.

In the case of O=P(O)(O)C(O)(Cn1ccnc1)P(=O)(O)O [zoledronic acid, 2-(imidazol-1yl)-1-hydroxyethane-1,1-diphosphonic acid], the “plaque phenotype (vulnerable or rupture-prone plaques)” value (LDLr−/− mice; 10 mg/kg/day s.c., four weeks, at 22 weeks, vs baseline and vehicle) is reported as “more stable phenotype”, the “calcification of the aortic valves” value (LDLr−/− mice; 10 mg/kg/day s.c., vs placebo-treated animals) is reported as “significantly less calcification” and the “progression of atherosclerosis in the aorta and innominate arteries” value (LDLr−/− mice; 10 mg/kg/day s.c., weeks 15-18, read at 22 weeks of high cholesterol/cholic acid diet, vs vehicle) is reported as “significantly reduced progression”. For the same compound, the “fibrous caps of atherosclerotic lesions” value (LDLr−/− mice; [6]) was “thicker fibrous caps”, the “inflammatory cells and areas of calcification in atherosclerotic lesions” value (LDLr−/− mice; [6]) was “less inflammatory cells and areas of calcification” and the “percent inhibition of neointimal lesion formation” value ([2]; 0.5 mg/kg oral gavage) was 17%. For the same compound, the “percent inhibition of neointimal lesion formation” value ([2]; 2.0 mg/kg oral gavage) was 37%, the “neointimal lesion formation at 28 days following balloon injury” value ([2]; oral, daily, dose of from 0.2 to 3.5 mg) was “significantly reduce” and the “extent of restenotic lesion formation” value ([3]; 30 mg/kg oral gavage once daily, vs placebo) was “marked reduction”. The “EEL area compared with control (constrictive remodeling or aneurysmal-type expansion)” value ([3]; 30 mg/kg oral once daily) was “did not result in differences”, the “healing of the intima in stented arterial segments” value ([3]; 30 mg/kg oral once daily) was “well healed” and the “reduction in average neointimal thickness” value ([3]; 30 mg/kg oral once daily, P<0.0001) was 29%. The “reduction in percent arterial stenosis” value ([3]; 30 mg/kg oral once daily, P<0.0002) was 17%, the “reduction in neointimal area” value ([3]; 30 mg/kg oral once daily, P<0.04) was 17% and the “stability in human plasma” value [4] was “stable”. For the same compound, the “activity over time in the same assay” value [5] was “strong decrease”.
